Data published in PMC10449848, “Structural basis of lipid-droplet localization of 17-beta-hydroxysteroid dehydrogenase 13” (Nature Communications, 2023).

Biological target: T1, human HSD17B13 (Homo sapiens, UniProt Q7Z5P4)
T1 construct: expressed in transfected cells
T1 sequence (Q7Z5P4 20-300): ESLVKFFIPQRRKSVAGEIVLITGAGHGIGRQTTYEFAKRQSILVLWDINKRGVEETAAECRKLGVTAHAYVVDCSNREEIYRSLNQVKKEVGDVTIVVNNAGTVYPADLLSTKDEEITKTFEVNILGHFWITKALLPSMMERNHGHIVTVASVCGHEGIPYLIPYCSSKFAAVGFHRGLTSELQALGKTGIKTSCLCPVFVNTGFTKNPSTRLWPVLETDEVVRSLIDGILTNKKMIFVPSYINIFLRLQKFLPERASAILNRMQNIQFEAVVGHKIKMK
Assay: Cell assay: HEK cells stably expressing wild-type human HSD17B13, estrone production by LCMS
Format: cell-based
Protocol: Cell inhibition potency of test compounds was determined using a whole-cell HEK overexpressing HSD17B13, utilizing a liquid chromatography/mass spectrometry (LCMS) readout.
In this assay HSD17B13 uses NAD^+ as a cofactor during metabolism of β-estradiol, converting NAD^+ to NADH and β-estradiol to estrone. Estrone production is quantified by LCMS using a Sciex API-5500-Electrospray system (AB Sciex LLC, MA, USA), and used as a measure of HSD17B13 enzyme activity.
The amount of product (estrone) was then quantified by LCMS using software provided (Analyst 1.7, Hotfix 3, MultiQuant 3.0.31721.0). Data expressed as product area ratio (PAR) were then normalized to control wells using Activity Base (IDBS). Zero percent effect (ZPE) was defined as PAR generated from uninhibited HSD17B13 (vehicle control).

## O=C(NC[C@]1(O)CC[C@H](COc2ccccc2F)CC1)c1ccc(O)c(F)c1 [Compound 1]
HEK cells overexpressing HSD17B13
  activity in cell assay: active
HEK cells overexpressing HSD17B13, β-estradiol substrate
  IC50: 570 ± 120 nM
